Measured values: US10512667B2, “Compositions and methods for treating conditions related to adrenocortical activity and/or excessive steroid production” (The Regents of the University of Michigan, priority 2017, dated 2019)
“Also recorded” adds a separate entry of the source.

Experiments:
H295R cells [1] = assay: Visualization of cholesterol levels by filipin III binding; type: cell-based; conditions: for cholesterol level / accumulation (filipin III binding), compound alone: H295R cells, serum-containing medium
Experimental: The cells were seeded in 96-well ibiTreat μ-Plates and allowed to adhere for 48 h prior to the start of each experiment. Cholesterol was detected in fixed cells by incubating with 100 μg/ml filipin III at 37 C for 2 h. […] Images were captured using either a 4× or a 60× objective. Cholesterol esterification was visualized by culturing the cells with 1 μM NBD-cholesterol for 2 h following incubation with the indicated compounds. […] Images were captured using either a 20× or a 60× objective.
The medium was removed and immediately replaced with 100 μl of 4% paraformaldehyde and the cells were fixed at room temperature for 20 min. The cells were washed twice with 200 μl PBS. […] The fixed cells were incubated with filipin III at 37 C in the dark for 2 h.

H295R cells [2] = assay: Visualization of NBD-cholesterol esterification; type: cell-based; conditions: 40 μM exogenous cholesterol, 100 μM ATR-101
Experimental: The cells were seeded in 96-well ibiTreat μ-Plates and allowed to adhere for 48 h prior to the start of each experiment. Cholesterol was detected in fixed cells by incubating with 100 μg/ml filipin III at 37 C for 2 h. The bound filipin III was imaged by fluorescence microscopy using 377/11 nm excitation and 447/60 nm emission wavelengths. Images were captured using either a 4× or a 60× objective. Cholesterol esterification was visualized by culturing the cells with 1 μM NBD-cholesterol for 2 h following incubation with the indicated compounds. NBD-cholesterol esters were imaged by fluorescence microscopy using 485/20 nm excitation wavelengths. Images were captured using either a 20× or a 60× objective.
The cells were seeded in 96-well ibiTreat μ-Plates (Ibidi) in 100 μl at a density of 50,000 cells per well. […] 5 μl of NBD-cholesterol was added to each well to produce a final concentration of 1 μM. When NBD-cholesterol is esterified and localized to cytoplasmic lipid droplets, it produces bright fluorescent foci in the cell. The inhibition of ACAT activity prevents fluorescent focus formation by NBD-cholesterol (see, e.g., Lada, et al., 2004 J Lipid Res, 45, 378-86). After 1.5 h, 5 μl of Hoechst 33342 was added to each well to produce a final concentration of 3 μg/ml. After 30 min, the medium was replaced with fresh medium. NBD-cholesterol esterification was visualized by fluorescence microscopy using either 485/20 nm (NBD) or 387/11 nm (Hoechst) excitation wavelengths and images were captured using either a 60× oil objective or a 20× objective.

H295R cells [3] = assay: Cortisol secretion (indirect ELISA); type: cell-based; conditions: 40 μM of the compound together with ATR-101, 4 h
Experimental: Cortisol secretion was measured by replacing the culture medium with fresh medium containing the indicated compounds. The medium was collected at the indicated times. The cortisol concentration in the medium was measured using indirect ELISA (Arbor Assays).
After 48 h, the medium was removed and replaced with 50 μl of fresh medium. After the indicated incubation time, aliquots of the supernatant ranging from 0.5 to 10 μl were diluted in 50 μl of medium were used to measure the amount of cortisol secreted. Cortisol detection and quantification were performed by indirect ELISA according to the manufacturer's protocol (Arbor Assays #K003).

H295R cells [4] = assay: Cholesterol crystallization and extracellular cholesterol associated with cells; type: cell-based
Experimental: To quantify cholesterol crystallization, experiments were conducted that measured the total extracellular cholesterol that was associated with the cells. After culturing cells with the indicated compounds, the culture medium was removed. Medium lacking cholesterol was added to the cells, and the extracellular cholesterol that was released into the wash medium was collected after 30 seconds. To establish if the cholesterol that was released from the cells was exported by ABCA1, the wash step was performed in parallel using media with and without 50 μM glibenclamide, which inhibits ABCA1 activity. The total amount of cell-associated cholesterol that was released into the wash medium was measured using a fluorometric enzyme-linked assay (Cayman Chemical). Cholesterol esters were hydrolyzed using cholesterol esterase. Cholesterol was oxidized by cholesterol oxidase, producing hydrogen peroxide. The hydrogen peroxide was reacted with 10-acetyl-3,7-dihydroxyphenoxazine (ADHP) in the presence of horseradish peroxidase to produce resorufin. Resorufin fluorescence was measured using 555 nm exitation and 590 nm emission wavelengths in a SpectraMax M5 microplate reader (Molecular Devices).
The medium was removed and replaced with 50 μl serum-free medium supplemented with 5 μg/mL apo-AI (without or with 50 μM glyburide to detect ABCA1 transporter-dependent efflux) for either 30 sec or 1 h at 37 C in 5% CO2 atmosphere. After the indicated time, the supernatant, was transferred to a new 96-well plate and a fluorometric-base cholesterol detection assay cocktail was added.

H295R cells [5] = assay: Caspase 3/7 activity (Apo-ONE); type: cell-based; conditions: for caspase 3/7 activity, compound alone: H295R cells, serum-containing medium
Experimental: The samples were incubated for 18 h at room temperature in the dark. The fluorescence was measured using a SpectraMax M5 microplate reader with a 0.5 s acquisition time.

H295R cells [6] = assay: Cell morphology by phase contrast microscopy; type: cell-based; conditions: 30 h
Experimental: FIG. 4E: […] The cells were cultured with DMSO vehicle (upper images) or with 40 μM ATR-101 (lower images) alone (left images), or in combination with 1.5 mM MβCD (middle images), or in combination with 40 μM cholesterol (right images). Cell morphology was visualized by phase contrast microscopy using a 10× objective. The images are representative of 5 fields under each set of culture conditions. The scale bars denote 100 μm.

H295R cells [7] = assay: Cellular ATP level (CellTiter-Glo); conditions: for ATP level, compound alone: H295R cells, serum-containing medium;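 for all read-outs here: ATP quantified by luminescence after lysing the cells in CellTiter-Glo reagent, with compound exposure at 37 °C under 5% CO2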
Experimental: The ATP levels of cells were measured by lysis in CellTiter-Glo reagent (Promega), and measurement of the luminescence.
After 48 h, 20-80 μl of medium was removed from each well and replaced with 20 μl of each compound diluted to 6× of the final concentration in the culture medium to produce a final volume of 120 μl. The cells were incubated at 37 C in 5% CO2 atmosphere for a time ranging from 15 min to 24 h. The medium was removed and immediately replaced with 50 μl of CellTiter-Glo luminescence cell viability assay reagent (Promega). The cells were lysed by agitation at room temperature for 20 min in the dark. The luminescence was measured using a SpectraMax M5 microplate reader (Molecular Devices) with a 0.5 s acquisition time. The luminescence (RLU) values for control cells ranged from 5000 to 20000 RLU in all experiments, and were scaled by a factor of 0.001 to plot all graphs.

[8] = H295R cells cultured with the compound together with ATR-101, 4 h
[9] = H295R cells cultured with the compound together with ATR-101, 24 h

## CC(C)CCC[C@@H](C)[C@H]1CC[C@H]2[C@@H]3CC=C4C[C@@H](O)CC[C@]4(C)[C@H]3CC[C@]12C [cholesterol]
H295R cells [1]; H295R cells cultured with the compound together with ATR-101, 4 h or 24 h
  effect on cholesterol accumulation caused by ATR-101: lower cholesterol levels than cells that were cultured with ATR-101 alone; also recorded: prevented intracellular cholesterol accumulation; also recorded: did not have a higher level of filipin III binding to the plasma membrane
H295R cells [1]; 24 h
  cholesterol level / accumulation (filipin III binding), compound alone: no detectable effect
H295R cells [1]; up to 4 h
  cholesterol level / accumulation (filipin III binding), compound alone: no detectable effect
H295R cells [2]
  effect of exogenous cholesterol on NBD-cholesterol esterification and on its inhibition by ATR-101: no significant difference
H295R cells [3]
  effect on the inhibition of cortisol secretion by ATR-101: neither compound prevented the inhibition of cortisol secretion
H295R cells [4]; 4 h, 100 μM ATR-101 or 40 μM cholesterol
  total extracellular cholesterol associated with cells: increased the total extracellular cholesterol
H295R cells [4]; compound in combination with ATR-101
  effect on cholesterol crystallization in cells cultured with ATR-101: produced more extracellular crystals; also recorded: increased the amount of extracellular cholesterol crystals
H295R cells [5]; [8]
  effect on caspase 3/7 activation by ATR-101: did not affect caspase 3/7 activation
H295R cells [5]; [9]
  effect on caspase 3/7 activation by ATR-101: reduced caspase activation
H295R cells [5]; 4 h
  caspase 3/7 activity, compound alone: no detectable effect
H295R cells [5]; 24 h
  caspase 3/7 activity, compound alone: no detectable effect
H295R cells [6]; 40 μM ATR-101 with 1.5 mM MβCD or 40 μM cholesterol
  effect on the changes in cell morphology caused by ATR-101: remained flat and adherent for at least 30 h; also recorded: prevented
H295R cells [6]; phase contrast
  cell morphology, compound alone: no detectable effect
H295R cells [7]; [8]
  effect on ATP depletion by ATR-101: partially restored the ATP level; also recorded: restored normal or nearly normal ATP levels; also recorded: reduced ATP depletion
H295R cells [7]; [9]
  effect on ATP depletion by ATR-101: partially restored the ATP level; also recorded: inhibits ATP depletion by ATR-101
H295R cells [7]; 4 h
  ATP level, compound alone: no detectable effect
H295R cells [7]; 24 h
  ATP level, compound alone: no detectable effect
